Earlier results as cited in US12478681B2, “Non-activated, amorphous, pH neutral, two-part bedside-ready clay delivery system that treats pathogen infections in humans and animals” (priority 2019, dated 2025).

elemental iron
Oral dose that can cause severe toxicity, morbidity and mortality: > 60 mg/kg | Oral dose that can have toxicity symptoms: 20 to 60 mg/kg | Oral dose that is non-toxic: < 20 mg/kg
